Source: patent US7659273B2, “Composition for accelerating bone fracture healing” (Mitsubishi Tanabe Pharma Corporation, priority 2001, dated 2010)

What was measured:
fibula fracture region = assay: Acceleration of fracture healing in normal rats, Compound (2) microspheres (Experimental Example 2); format: in vivo, rat; conditions: Example 7 microspheres; for Fibula Bone Mineral Content / Fibula Bone Volume / Fibula Bone Mineral Density: 2 weeks after suturing; for Fibula Bone Mineral Density: DXA at fracture region; for Breaking Energy: 4 weeks after suturing, three-point bending test
Experimental: CD (SD) IGS rats (Charles River Japan, Inc.; male; 7-week-old) were housed for seven days at room temperature (23±2° C.) and 50±20% humidity. During the housing period, the rats were free to access commercially available food (from Oriental Bio; CE-2).
Under ether anesthesia, the left-lower legs of rats were shaved and sterilized with 70% aqueous ethanol; fibulas were exposed with scissors and cut with nail scissors (Natsume Seisakusyo; B17). The cut sections of the fibula were re-matched with tweezers. For the test groups (15 rats/group), the drug-containing microspheres prepared in Example 7, which contains 0.004, 0.02, 0.1 or 0.5 mg of Compound (2), were placed around the cutting site using spatula followed by suturing with silk thread. For the control group (15 rats/group), the same amount of drug-free microspheres prepared in Control Example 2 were placed around the cutting site using spatula followed by suturing with silk thread. Following the suturing, every animal was sterilized with 70% aqueous ethanol. Five rats at two weeks later and 10 rats at four weeks later were taken from each group and sacrificed by laparotomy with bleeding under ether anesthesia and the fibulas were excised.
The fibula excised at 2 weeks after suturing was subjected to DXA bone densitometer (from Aloka; DCS-600) to determine bone mineral density and bone mineral content at fracture region (scanning width: 1 mm).
The volume of fibula excised at 2 weeks after suturing was determined using Plethysmometer (Muromachi Kikai Co., Ltd.; TK-101).
The fibula excised at 4 weeks after suturing was subjected to a three-point bending test with bone strength tester (from Muromachi Kikai Co., Ltd.; TK-252C) to determine bone strength. Briefly, the fibula was supported by two supports apart from each other by 8 mm and the cut section was positioned at the middle of these supports, i.e., 4 mm apart from the respective two supports. Loading (3 mm/minute) from upper direction was kept on the middle point (fracture section) of fibula until fibula begins to fracture. The breaking force […] spent to break the bone was defined as the breaking energy.

[1] = test system: rabbit costicartilage cells; assay: Cartilage matrix (proteoglycan) production, Alcian blue staining (Experimental Examples 3 and 4); format: cell-based; conditions: summary of Tables 10 and 11
Source text: Costicartilages were isolated from NZ line rabbit (Kitayama Labes., Co Ltd.; male; 4-week-old) and soaked into Hank's balanced salt solution (calcium- and magnesium-free; LifeTech Co., Ltd.; hereinafter, referred to as “HBSS”). One costicartilage and one costa were excised together, the adipose tissue and the muscle tissue were removed and then, the proliferating chondrocyte layer of costicartilage was excised. The collected proliferating chondrocyte layer was cut into sections with a surgical knife (FEATHER Safety Razor Co., Ltd.) and the all proliferating chondrocyte layer sections from 4 rabbits were combined in a centrifuge tube. To the centrifuge tube was added 40 ml of HBSS (pH 7.2) supplied with 0.1% tetrasodium ethylenediamine tetraacetate to obtain suspension of the proliferating chondrocyte layer sections, which was shaken at 37° C. for 20 minutes and centrifuged (1500 rpm, 10 minutes). The supernatant was aspirated off, and 40 ml of HBSS (pH 7.2) supplied with 0.2% trypsin was added to the tube to suspend the precipitates and shaken at 37° C. for 1 hour. The tube was centrifuged (1500 rpm, 10 minutes), and the supernatant was aspirated off. The precipitates were washed twice with HBSS, suspended in 100 ml of HBSS supplied with 0.1% collagenase (Wako Pure Chemical Industries, Ltd., 034-10533) and shaken at 37° C. for 3 hours. The content of the tube was passed through the Cell Strainer (pore size 40 μm) and the filtrate was divided into four centrifuge tubes. To each of all four tubes was added 40 ml of medium (α-MEM, LifeTech Co., Ltd.), and the tubes were centrifuged (1500 rpm, 10 minutes). The supernatant was aspirated off, and the resultant precipitates were collected in one tube with Pipetman. After addition of 40 ml of the same medium, the tube was re-centrifuged (1500 rpm, 10 minutes). Washing procedure comprising addition of medium followed by centrifugation was repeated additional three times. The precipitates were suspended in the same medium to give an about 5 ml suspension, and the cell number was counted.
The suspension of costicartilage cell described above was added to 24-well plate at 50,000 cells per well (day 1). […]
After removing the medium, cells in each well were fixed by addition of 1 ml of neutral buffer containing 4% paraformaldehyde and incubation for 30 minutes at room temperature. […] Absorbance at 620 nm was measured, and cartilage matrix amount (proteoglycan production amount) in each well was estimated, and proteoglycan production rate (%) of each test compound for vehicle (100%) was calculated.
The cartilage matrix (proteoglycan) production was determined using other compounds (compounds (52)-(55) and Compound (2) for comparison) in exactly the same manner as Experimental Example 3 above.

CCOc1cc2cc(CO)c(CO)c(-c3ccnc(-n4nc(-c5cccnc5)c5ccccc5c4=O)c3)c2cc1OCC [Compound (2)]
Fibula Bone Mineral Content (fibula fracture region; drug content 0.004 mg): 15.90 ± 1.88 mg
Fibula Bone Volume (fibula fracture region; drug content 0.004 mg): 85.0 ± 8.14 µL
Fibula Bone Mineral Density (fibula fracture region; drug content 0.004 mg): 46.18 ± 3.18 mg/cm^2
Breaking Energy (fibula fracture region; drug content 0.004 mg): 2.66 ± 0.49 mJ
Fibula Bone Mineral Content (fibula fracture region; drug content 0.02 mg): 19.86 ± 1.75 mg
Fibula Bone Volume (fibula fracture region; drug content 0.02 mg): 97.6 ± 4.99 µL
Fibula Bone Mineral Density (fibula fracture region; drug content 0.02 mg): 50.72 ± 2.68 mg/cm^2
Breaking Energy (fibula fracture region; drug content 0.02 mg): 2.59 ± 0.55 mJ
Fibula Bone Mineral Content (fibula fracture region; drug content 0.1 mg): 23.10 ± 2.72 mg
Fibula Bone Volume (fibula fracture region; drug content 0.1 mg): 121.6 ± 13.76 µL
Fibula Bone Mineral Density (fibula fracture region; drug content 0.1 mg): 56.06 ± 4.19 mg/cm^2
Breaking Energy (fibula fracture region; drug content 0.1 mg): 3.15 ± 0.54 mJ
Fibula Bone Mineral Content (fibula fracture region; drug content 0.5 mg): 23.24 ± 2.97 mg
Fibula Bone Volume (fibula fracture region; drug content 0.5 mg): 132.2 ± 11.72 µL
Fibula Bone Mineral Density (fibula fracture region; drug content 0.5 mg): 52.18 ± 4.36 mg/cm^2
Breaking Energy (fibula fracture region; drug content 0.5 mg): 3.27 ± 0.61 mJ
cartilage matrix (proteoglycan) production promoting effect (in words) [1]: remarkable matrix production promoting effect
